The values below are quoted from earlier work in patent US20100261666A1, “COMPOSITIONS AND METHODS FOR THE TREATMENT OF MYOCARDIAL DYSFUNCTION ASSOCIATED WITH SIRS OR SEPSIS” (THE BOARD OF TRUSTEES OF THE UNIVERSITY OF ILLINOIS, priority 2009, published 2010).

The Ki is a dissociation constant, usually derived from enzyme kinetics or from competition with a known ligand.

In this data set the target is ADA (Homo sapiens, UniProt P00813). Particulars: cited from earlier work.
Sequence of ADA (P00813 whole entry, species assumed): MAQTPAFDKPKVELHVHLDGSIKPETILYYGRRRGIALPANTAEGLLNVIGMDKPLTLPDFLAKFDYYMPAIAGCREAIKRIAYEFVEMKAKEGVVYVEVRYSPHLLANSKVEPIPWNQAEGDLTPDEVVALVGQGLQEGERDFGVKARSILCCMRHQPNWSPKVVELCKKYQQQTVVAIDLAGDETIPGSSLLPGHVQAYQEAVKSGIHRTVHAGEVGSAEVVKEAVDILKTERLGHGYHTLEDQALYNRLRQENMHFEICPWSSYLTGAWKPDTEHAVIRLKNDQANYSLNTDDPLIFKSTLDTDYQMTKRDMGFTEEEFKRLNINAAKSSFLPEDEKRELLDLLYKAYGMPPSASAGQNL

On to `OC[C@H]1O[C@@H](n2cnc3c2N=CNCC3O)C(O)[C@H]1O` (stereo partly shown) [coformycin], for which the Ki was 0.01 nM.
